From paper PMC5696560 (Bioorganic & Medicinal Chemistry Letters, 2017) come the findings set out here.

In this data set the target is hERG channel (Homo sapiens, UniProt Q12809). Put plainly: Inhibition of the hERG channel. The format is biochemical. As to conditions: for pIC50: studies conducted by Wuxi AppTec. In general terms: hERG is a cardiac potassium channel; its block is linked to QT prolongation.

Structures are written as SMILES. pIC50: −log10 of the molar value.

hERG channel, sequence (Q12809 whole entry): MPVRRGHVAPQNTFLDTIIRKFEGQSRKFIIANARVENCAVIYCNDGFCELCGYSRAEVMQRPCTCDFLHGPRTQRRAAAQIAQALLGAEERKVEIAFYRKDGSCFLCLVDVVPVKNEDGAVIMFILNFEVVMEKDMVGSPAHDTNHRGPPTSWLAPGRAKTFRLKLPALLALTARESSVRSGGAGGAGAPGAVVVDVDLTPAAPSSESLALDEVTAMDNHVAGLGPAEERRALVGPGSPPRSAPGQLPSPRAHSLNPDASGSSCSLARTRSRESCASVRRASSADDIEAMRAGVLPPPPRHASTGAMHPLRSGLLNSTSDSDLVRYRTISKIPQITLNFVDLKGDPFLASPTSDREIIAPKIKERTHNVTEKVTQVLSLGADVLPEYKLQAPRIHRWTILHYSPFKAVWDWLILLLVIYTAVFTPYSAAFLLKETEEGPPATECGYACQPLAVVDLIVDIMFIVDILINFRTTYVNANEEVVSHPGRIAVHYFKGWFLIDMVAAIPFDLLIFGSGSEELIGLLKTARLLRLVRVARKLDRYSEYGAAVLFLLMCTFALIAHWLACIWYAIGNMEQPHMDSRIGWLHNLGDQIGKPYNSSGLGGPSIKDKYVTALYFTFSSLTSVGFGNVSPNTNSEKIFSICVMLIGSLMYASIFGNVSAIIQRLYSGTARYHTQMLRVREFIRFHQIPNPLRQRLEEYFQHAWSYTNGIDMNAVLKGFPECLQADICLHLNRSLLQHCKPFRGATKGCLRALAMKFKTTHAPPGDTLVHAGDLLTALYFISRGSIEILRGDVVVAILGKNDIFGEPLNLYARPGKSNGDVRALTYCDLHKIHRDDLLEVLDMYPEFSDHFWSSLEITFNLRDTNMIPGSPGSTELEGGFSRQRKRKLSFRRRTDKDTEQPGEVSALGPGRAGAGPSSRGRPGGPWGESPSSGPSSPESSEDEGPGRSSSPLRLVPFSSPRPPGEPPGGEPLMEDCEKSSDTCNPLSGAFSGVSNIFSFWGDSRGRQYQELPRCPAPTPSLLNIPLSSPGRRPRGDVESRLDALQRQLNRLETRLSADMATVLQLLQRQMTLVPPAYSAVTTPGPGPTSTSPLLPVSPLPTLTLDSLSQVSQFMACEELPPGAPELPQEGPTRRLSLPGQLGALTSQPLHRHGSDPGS

The molecule `COc1nc2ccc(Br)cc2cc1[C@@H](c1ccnc(OC)c1OC)[C@@](O)(CCN(C)C)c1cccc(C)c1` [Compound 45] had a pIC50 of 6.28.
Regarding `COc1cc([C@H](c2cc3cc(Br)ccc3nc2OC)[C@@](O)(CCN(C)C)c2cccc(F)c2)cnc1OC` [Compound 43], the pIC50 was 5.72. Besides, the “improvement in hERG IC50 relative to 1” value (versus compound 1) amounted to 5 fold.
Take `COc1nc2ccc(Br)cc2cc1[C@@H](c1cc(C)c(C)s1)[C@@](O)(CCN(C)C)c1cccc(F)c1` [Compound 9]: the pIC50 is 6.06.

Usually pIC50 stands for −log10 of the IC50, conventionally taken in molar units. A lower pIC50 goes with a large IC50.
